Experimental data as given in PubChem BioAssay AID1745844 (Carcinogenic Potency Database (CPDB), 2022).
Activity calls are given as the source filed them. How the calls were made is not given here.

System: rodent lifetime carcinogenesis bioassay, tumor incidence TD50
Assay: carcinogenic potency in animals, long-term in vivo studies, CPDB compilation (AID 1745844)

SMILES: NC(=O)N(CCO)N=O
- TD50 (mouse, strain Swiss, females, in drinking water, site: all sites, lesion: lymphoma, dosed 50 weeks, study length 51 weeks): 0.603 mg/kg/day
- TD50 (mouse, strain Swiss, females, in drinking water, site: lung, lesion: adenoma, dosed 50 weeks, study length 51 weeks): 1.97 mg/kg/day
- TD50 (mouse, strain Swiss, males, in drinking water, site: all sites, lesion: lymphoma, dosed 50 weeks, study length 51 weeks): 1.27 mg/kg/day
- TD50 (mouse, strain Swiss, males, in drinking water, site: any site (literature study), lesion: one or several types, types not named, dosed 50 weeks, study length 51 weeks): 0.353 mg/kg/day
- TD50 (mouse, strain Swiss, males, in drinking water, site: lung, lesion: adenoma, dosed 50 weeks, study length 51 weeks): 0.382 mg/kg/day
- TD50 (rat, strain Fischer 344, females, by gavage, site: Zymbal's gland, lesion: carcinoma, dosed 37 weeks, study length 60 weeks): 3.15 mg/kg/day
- TD50 (rat, strain Fischer 344, females, by gavage, site: colon, lesion: adenoma, dosed 37 weeks, study length 60 weeks): 1.53 mg/kg/day
- TD50 (rat, strain Fischer 344, females, by gavage, site: forestomach, lesion: squamous-cell carcinoma, dosed 37 weeks, study length 60 weeks): 3.15 mg/kg/day
- TD50 (rat, strain Fischer 344, females, by gavage, site: mammary gland, lesion: adenocarcinoma, dosed 37 weeks, study length 60 weeks): 0.452 mg/kg/day
- TD50 (rat, strain Fischer 344, males, by gavage, site: Zymbal's gland, lesion: carcinoma, dosed 37 weeks, study length 55 weeks): 0.879 mg/kg/day
- TD50 (rat, strain Fischer 344, males, by gavage, site: Zymbal's gland, lesion: several types, types named in the paper, dosed 37 weeks, study length 55 weeks): 0.568 mg/kg/day
- TD50 (rat, strain Fischer 344, males, by gavage, site: colon, lesion: adenocarcinoma, dosed 37 weeks, study length 55 weeks): 0.983 mg/kg/day
- TD50 (rat, strain Fischer 344, males, by gavage, site: colon, lesion: several types, types named in the paper, dosed 37 weeks, study length 55 weeks): 0.24 mg/kg/day
- TD50 (rat, strain Fischer 344, males, by gavage, site: forestomach, lesion: several types, types named in the paper, dosed 37 weeks, study length 55 weeks): 0.203 mg/kg/day
- TD50 (rat, strain Fischer 344, males, by gavage, site: forestomach, lesion: squamous-cell carcinoma, dosed 37 weeks, study length 55 weeks): 0.637 mg/kg/day
- TD50 (rat, strain Fischer 344, males, by gavage, site: lung, lesion: malignant tumor, dosed 37 weeks, study length 55 weeks): 0.602 mg/kg/day
- TD50 (rat, strain Fischer 344, males, by gavage, site: lung, lesion: several types, types named in the paper, dosed 37 weeks, study length 55 weeks): 0.0776 mg/kg/day
- TD50 (rat, strain MRC-Wistar, females, in drinking water, site: all sites, lesion: B-cell lymphoma, dosed 39 weeks, study length 85 weeks): 3.16 mg/kg/day
- TD50 (rat, strain MRC-Wistar, females, in drinking water, site: all sites, lesion: myelocytic leukemia, dosed 39 weeks, study length 85 weeks): 3.16 mg/kg/day (inactive)
- TD50 (rat, strain MRC-Wistar, females, in drinking water, site: any site (literature study), lesion: one or several types, types not named, dosed 39 weeks, study length 85 weeks): 0.32 mg/kg/day
- TD50 (rat, strain MRC-Wistar, females, in drinking water, site: liver, lesion: one or several types, types not named, dosed 39 weeks, study length 85 weeks): 10 mg/kg/day
- TD50 (rat, strain MRC-Wistar, males, in drinking water, site: all sites, lesion: B-cell lymphoma, dosed 39 weeks, study length 85 weeks): 1.56 mg/kg/day
- TD50 (rat, strain MRC-Wistar, males, in drinking water, site: all sites, lesion: lymphocytic lymphoma, dosed 52 weeks, study length 70 weeks): 2.03 mg/kg/day
- TD50 (rat, strain MRC-Wistar, males, in drinking water, site: all sites, lesion: malignant lymphoma, dosed 52 weeks, study length 70 weeks): 2.03 mg/kg/day
- TD50 (rat, strain MRC-Wistar, males, in drinking water, site: all sites, lesion: myelocytic leukemia, dosed 39 weeks, study length 85 weeks): 2.02 mg/kg/day (inactive)
- TD50 (rat, strain MRC-Wistar, males, in drinking water, site: any site (literature study), lesion: one or several types, types not named, dosed 39 weeks, study length 85 weeks): 0.195 mg/kg/day
- TD50 (rat, strain MRC-Wistar, males, in drinking water, site: any site (literature study), lesion: several types, types named in the paper, dosed 52 weeks, study length 70 weeks): 0.36 mg/kg/day
- TD50 (rat, strain MRC-Wistar, males, in drinking water, site: bone, lesion: osteosarcoma, dosed 39 weeks, study length 85 weeks): 1.56 mg/kg/day
- TD50 (rat, strain MRC-Wistar, males, in drinking water, site: bone, lesion: osteosarcoma, dosed 52 weeks, study length 70 weeks): 1.52 mg/kg/day
- TD50 (rat, strain MRC-Wistar, males, in drinking water, site: liver, lesion: one or several types, types not named, dosed 39 weeks, study length 85 weeks): 2.77 mg/kg/day
- TD50 (rat, strain Wistar, males, in drinking water, site: all sites, lesion: B-cell lymphoma, dosed 90 weeks, study length 90 weeks): 15.9 mg/kg/day
- TD50 (rat, strain Wistar, males, in drinking water, site: all sites, lesion: myelocytic leukemia, dosed 90 weeks, study length 90 weeks): 3.66 mg/kg/day
- TD50 (rat, strain Wistar, males, in drinking water, site: any site (literature study), lesion: one or several types, types not named, dosed 90 weeks, study length 90 weeks): 0.576 mg/kg/day
- TD50 (rat, strain Wistar, males, in drinking water, site: kidney, lesion: one or several types, types not named, dosed 90 weeks, study length 90 weeks): 4.93 mg/kg/day
- TD50 (rat, strain Wistar, males, in drinking water, site: lung, lesion: one or several types, types not named, dosed 90 weeks, study length 90 weeks): 1.59 mg/kg/day
- TD50 (rat, strain Wistar, males, in drinking water, site: mammary gland, lesion: adenocarcinoma, dosed 90 weeks, study length 90 weeks): 4.14 mg/kg/day

SMILES: Nc1ccc(NCCO)c([N+](=O)[O-])c1
- TD50 (mouse, strain B6C3F1, females, by gavage, site: any site (literature study), lesion: several types, types named in the paper, dosed 104 weeks, study length 105 weeks): 292 mg/kg/day
- TD50 (mouse, strain B6C3F1, females, by gavage, site: forestomach, lesion: squamous-cell papilloma, dosed 104 weeks, study length 105 weeks): 721 mg/kg/day
- TD50 (mouse, strain B6C3F1, females, by gavage, site: lung, lesion: alveolar/bronchiolar adenoma + alveolar/bronchiolar carcinoma, dosed 104 weeks, study length 105 weeks): 4670 mg/kg/day
- TD50 (mouse, strain B6C3F1, males, by gavage, site: liver, lesion: hepatocellular adenoma + hepatocellular carcinoma + neoplastic nodule, dosed 104 weeks, study length 105 weeks): 427 mg/kg/day
- TD50 (mouse, strain B6C3F1, males, by gavage, site: liver, lesion: hepatocellular adenoma + hepatocellular carcinoma, dosed 104 weeks, study length 105 weeks): 427 mg/kg/day
- TD50 (mouse, strain B6C3F1, males, by gavage, site: lung, lesion: alveolar/bronchiolar adenoma + alveolar/bronchiolar carcinoma, dosed 104 weeks, study length 105 weeks): 1750 mg/kg/day
- TD50 (rat, strain Fischer 344, females, by gavage, site: any site (literature study), lesion: several types, types named in the paper, dosed 105 weeks, study length 106 weeks): 4870 mg/kg/day (inactive)
- TD50 (rat, strain Fischer 344, males, by gavage, site: any site (literature study), lesion: several types, types named in the paper, dosed 105 weeks, study length 106 weeks): 500 mg/kg/day (inactive)
- TD50 (rat, strain Fischer 344, males, by gavage, site: liver, lesion: hepatocellular adenoma + hepatocellular carcinoma + neoplastic nodule, dosed 105 weeks, study length 106 weeks): 1.51e+06 mg/kg/day

SMILES: CN(C)C(=S)S[Se](SC(=S)N(C)C)(SC(=S)N(C)C)SC(=S)N(C)C
- carcinogen call (mouse, strain B6AKF1, females, oral dosing, site: any site (literature study), lesion: several types, types named in the paper, dosed 76 weeks, study length 76 weeks): negative (inactive)
- carcinogen call (mouse, strain B6AKF1, females, oral dosing, site: liver, lesion: hepatoma, dosed 76 weeks, study length 76 weeks): negative (inactive)
- carcinogen call (mouse, strain B6AKF1, females, oral dosing, site: lung, lesion: adenoma, dosed 76 weeks, study length 76 weeks): negative (inactive)
- carcinogen call (mouse, strain B6AKF1, males, oral dosing, site: any site (literature study), lesion: several types, types named in the paper, dosed 76 weeks, study length 76 weeks): negative (inactive)
- carcinogen call (mouse, strain B6AKF1, males, oral dosing, site: liver, lesion: hepatoma, dosed 76 weeks, study length 76 weeks): negative (inactive)
- carcinogen call (mouse, strain B6AKF1, males, oral dosing, site: lung, lesion: adenoma, dosed 76 weeks, study length 76 weeks): negative (inactive)
- carcinogen call (mouse, strain B6C3F1, females, oral dosing, site: any site (literature study), lesion: one or several types, types not named, dosed 76 weeks, study length 76 weeks): negative (inactive)
- carcinogen call (mouse, strain B6C3F1, females, oral dosing, site: liver, lesion: hepatoma, dosed 76 weeks, study length 76 weeks): negative (inactive)
- carcinogen call (mouse, strain B6C3F1, females, oral dosing, site: lung, lesion: several types, types named in the paper, dosed 76 weeks, study length 76 weeks): negative (inactive)
- TD50 (mouse, strain B6C3F1, males, oral dosing, site: any site (literature study), lesion: several types, types named in the paper, dosed 76 weeks, study length 76 weeks): 5.88 mg/kg/day (inactive)
- TD50 (mouse, strain B6C3F1, males, oral dosing, site: liver, lesion: hepatoma, dosed 76 weeks, study length 76 weeks): 26 mg/kg/day (inactive)
- carcinogen call (mouse, strain B6C3F1, males, oral dosing, site: lung, lesion: several types, types named in the paper, dosed 76 weeks, study length 76 weeks): negative (inactive)

SMILES: ClCOCC(COCCl)OCCl
- TD50 (mouse, strain Ha/ICR, females, i.p., site: abdomen, lesion: sarcoma, dosed 76 weeks, study length 76 weeks): 3.44 mg/kg/day

SMILES: CCn1cc(C(=O)O)c(=O)c2ccc(C)nc21
- TD50 (mouse, strain B6C3F1, females, in feed, site: adrenal medulla, lesion: pheochromocytoma, dosed 103 weeks, study length 104 weeks): 3630 mg/kg/day (inactive)
- TD50 (mouse, strain B6C3F1, females, in feed, site: any site (literature study), lesion: several types, types named in the paper, dosed 103 weeks, study length 104 weeks): 1690 mg/kg/day
- TD50 (mouse, strain B6C3F1, females, in feed, site: liver, lesion: hepatocellular adenoma + hepatocellular carcinoma + neoplastic nodule, dosed 103 weeks, study length 104 weeks): 3160 mg/kg/day
- TD50 (mouse, strain B6C3F1, females, in feed, site: lung, lesion: alveolar/bronchiolar adenoma + alveolar/bronchiolar carcinoma, dosed 103 weeks, study length 104 weeks): 4900 mg/kg/day
- TD50 (mouse, strain B6C3F1, males, in feed, site: any site (literature study), lesion: several types, types named in the paper, dosed 103 weeks, study length 104 weeks): 1330 mg/kg/day
- TD50 (mouse, strain B6C3F1, males, in feed, site: lung, lesion: alveolar/bronchiolar adenoma + alveolar/bronchiolar carcinoma, dosed 103 weeks, study length 104 weeks): 4600 mg/kg/day
- TD50 (mouse, strain B6C3F1, males, in feed, site: subcutaneous tissue, lesion: fibrosarcoma + fibroma, dosed 103 weeks, study length 104 weeks): 1210 mg/kg/day
- carcinogen call (mouse, strain CDF1, females, in feed, site: any site (literature study), lesion: one or several types, types not named, dosed 76 weeks, study length 85 weeks): negative (inactive)
- TD50 (mouse, strain CDF1, females, in feed, site: liver, lesion: hepatocellular adenoma, dosed 76 weeks, study length 85 weeks): 6450 mg/kg/day (inactive)
- TD50 (mouse, strain CDF1, females, in feed, site: lung, lesion: adenocarcinoma, dosed 76 weeks, study length 85 weeks): 1770 mg/kg/day (inactive)
- carcinogen call (mouse, strain CDF1, females, in feed, site: lung, lesion: several types, types named in the paper, dosed 76 weeks, study length 85 weeks): negative (inactive)
- carcinogen call (mouse, strain CDF1, males, in feed, site: any site (literature study), lesion: one or several types, types not named, dosed 76 weeks, study length 85 weeks): negative (inactive)
- carcinogen call (mouse, strain CDF1, males, in feed, site: liver, lesion: hepatocellular adenoma, dosed 76 weeks, study length 85 weeks): negative (inactive)
- TD50 (mouse, strain CDF1, males, in feed, site: liver, lesion: hepatocellular carcinoma, dosed 76 weeks, study length 85 weeks): 1940 mg/kg/day (inactive)
- TD50 (mouse, strain CDF1, males, in feed, site: liver, lesion: several types, types named in the paper, dosed 76 weeks, study length 85 weeks): 3100 mg/kg/day (inactive)
- TD50 (mouse, strain CDF1, males, in feed, site: lung, lesion: adenocarcinoma, dosed 76 weeks, study length 85 weeks): 3980 mg/kg/day (inactive)
- carcinogen call (mouse, strain CDF1, males, in feed, site: lung, lesion: several types, types named in the paper, dosed 76 weeks, study length 85 weeks): negative (inactive)
- TD50 (rat, strain Fischer 344, females, in feed, site: clitoral gland, lesion: adenoma, NOS + carcinoma, NOS + papillary carcinoma + papilloma, NOS, dosed 103 weeks, study length 104 weeks): 372 mg/kg/day
- TD50 (rat, strain Fischer 344, males, in feed, site: any site (literature study), lesion: several types, types named in the paper, dosed 103 weeks, study length 104 weeks): 7600 mg/kg/day
- TD50 (rat, strain Fischer 344, males, in feed, site: preputial gland, lesion: adenoma, NOS + carcinoma, NOS + papilloma, NOS, dosed 103 weeks, study length 104 weeks): 138 mg/kg/day
- TD50 (rat, strain Fischer 344, males, in feed, site: preputial gland, lesion: adenoma, NOS + papilloma, NOS, dosed 103 weeks, study length 104 weeks): 358 mg/kg/day
- TD50 (rat, strain Fischer 344, males, in feed, site: preputial gland, lesion: adenoma, NOS, dosed 103 weeks, study length 104 weeks): 301 mg/kg/day
- TD50 (rat, strain Fischer 344, males, in feed, site: preputial gland, lesion: carcinoma, NOS, dosed 103 weeks, study length 104 weeks): 211 mg/kg/day
